# Target: BCL2 (Homo sapiens, UniProt P10415)
# Assay: Biacore SPR solution inhibition assay of BCL-2 binding to peptide derivatized sensor surfaces
# Conditions: SPR competition; 56 nM BCL2 pre-equilibrated with compound one hour; biotinylated BAK, BAD and NOXA peptide surfaces; 25° C.
# Description: The present method includes utility of a Surface plasmon resonance (SPR)-based biosensor (Biacore™ GE Healthcare, Uppsala, Sweden) to characterize BCL-2 inhibitors.
# Biacore™ utilizes the phenomenon of surface plasmon resonance (SPR) to detect and measure binding interactions. In a typical Biacore experiment, one of the interacting molecules (ligand) is immobilized on a flexible dextran matrix while the interacting partner (analyte) is allowed to flow across that surface. A binding interaction results in an increase in mass on the sensor surface and a corresponding direct change in the refractive index of the medium in the vicinity of the sensor surface. Changes in refractive index or signal are recorded in resonance units (R.U.) Signal changes due to association and dissociation of complexes are monitored in a non-invasive manner, continuously and in real-time, the results of which are reported in the form of a sensorgram. The SPR assay is configured to examine solution inhibition of BCL-2 binding to peptide derivatized sensor surfaces to generate […] values as a measure of inhibitor potency.
# Biacore™ A100 (GE Healthcare, Uppsala, Sweden) was used to conduct all experiments reported herein. Sensor surface preparation and all interaction analyses experiments were performed at 25° C. Reagents were purchased from GE Healthcare. Running buffer containing 10 mM Hepes, pH7.4, 150 mM sodium chloride, 1.25 mM Dithiothreitol, 3% Dimethyl sulfoxide and 0.05% polysorbate 20 were utilized throughout all analyses.
# Biotinylated BAK, BAD and NOXA peptides were diluted to 10 nM in running buffer and captured onto a sensor surface pre-derivatized with streptavidin (sensor chip SA) to peptide surface densities in the range 50-100 R.U. Peptide captured surfaces were blocked with 500 μM PEO2-Biotin.
# Interaction analyses were performed by first equilibrating each sample within a 6 point three fold compound dilution series in the range 16 μM to 0.004 nM with 56 nM BCL2 for one hour during instrument start-up procedures. Protein compound mixtures were then injected over each peptide surface in parallel for 60 seconds at a flow-rate of 30 μL/min. 56 nM BCL2 control samples were also prepared and run at regular intervals during the assay. Surface regeneration was performed at the end of each analysis cycle by two 30 second injections of 10 mM Glycine, pH 2.5, 1M Sodium Chloride, 0.05% polysorbate 20. Samples and control compound samples were run in duplicate and controls are also run at regular intervals during the assay to monitor surface and assay performance.
# Data analyses are carried out using Biacore™ A100 evaluation software v1.1 to validate assay quality. Binding level report points were used relative to BCL2 control samples to calculate % inhibition values for each compound protein mixture.
# BCL2, sequence (P10415 whole entry): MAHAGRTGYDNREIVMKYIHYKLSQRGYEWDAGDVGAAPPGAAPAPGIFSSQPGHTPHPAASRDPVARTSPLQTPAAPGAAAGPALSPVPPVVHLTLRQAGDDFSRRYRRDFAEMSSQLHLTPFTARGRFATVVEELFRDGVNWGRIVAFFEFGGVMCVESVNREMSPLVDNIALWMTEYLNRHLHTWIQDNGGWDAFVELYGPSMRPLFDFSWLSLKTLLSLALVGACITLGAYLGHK
row,IC50 [nM],SMILES
1,41,"CC1(C)CCC(CN2CCC(N3CCc4c(ncnc4NS(=O)(=O)c4ccc(N[C@H](CCN5CCOCC5)CSc5ccccc5)c(S(=O)(=O)C(F)(F)F)c4)C3)CC2)=C(c2ccc(Cl)cc2)C1 [Example 16, (R)-N-(7-(1-((2-(4-chlorophenol)-4,4-dimethylcyclohex-1-enyl)methyl)piperidin-4-yl)-5,6,7,8-tetrahydropyrido[3,4-d]pyrimidin-4-yl)-4-(4-morpholino-1-(phenylthio)butan-2-ylamino)-3-(trifluoromethylsulfonyl)benzenesulfonamide]"
2,22,"CN(C)CC[C@H](CSc1ccccc1)Nc1ccc(S(=O)(=O)Nc2ncnc3c2CCN(C2CCN(CC4=C(c5ccc(Cl)cc5)CC(C)(C)CC4)CC2)C3)cc1S(=O)(=O)C(F)(F)F [Example 17, (R)-N-(7-(1-((2-(4-chlorophenyl)-4,4-dimethylcyclohex-1-enyl)methyl)piperidin-4-yl)-5,6,7,8-tetrahydropyrido[3,4-d]pyrimidin-4-yl)-4-(4-(dimethylamino)-1-(phenylthio)butan-2-ylamino)-3-(trifluoromethylsulfonyl)benzenesulfonamide]"
3,35,"CN(C)CC[C@H](CSc1ccccc1)Nc1ccc(S(=O)(=O)Nc2ncnc3c2CCN(C2CCN(Cc4ccc(F)cc4-c4ccc(Cl)cc4)CC2)C3)cc1S(=O)(=O)C(F)(F)F [Example 19, (R)-N-(7-(1-((4′-chloro-5-fluorobiphenyl-2-yl)methyl)piperidin-4-yl)-5,6,7,8-tetrahydropyrido[3,4-d]pyrimidin-4-yl)-4-(4-(dimethylamino)-1-(phenylthio)butan-2-ylamino)-3-(trifluoromethylsulfonyl)benzenesulfonamide]"
4,22,CN(C)CC[C@H](CSc1ccccc1)Nc1ccc(S(=O)(=O)Nc2ncnc3c2CCN(C2CCN(Cc4cc(F)ccc4-c4ccc(Cl)cc4)CC2)C3)cc1S(=O)(=O)C(F)(F)F [Example 20]

# More lines, now with the values behind:
row,SMILES,IC50 [nM]
1,"CN(C)CC[C@H](CSc1ccccc1)Nc1ccc(S(=O)(=O)Nc2ncnc3c2CCN(C2CCN(Cc4c(F)cccc4-c4ccc(Cl)cc4)CC2)C3)cc1S(=O)(=O)C(F)(F)F [Example 21, (R)-N—-(7-(1-((4′-chloro-3-fluorobiphenyl-2-yl)methyl)piperidin-4-yl)-5,6,7,8-tetrahydropyrido[3,4-d]pyrimidin-4-yl)-4-(4-(dimethylamino)-1-(phenylthio)butan-2-ylamino)-3-(trifluoromethylsulfonyl)benzenesulfonamide]",30
2,"CN(C)C(=O)C[C@H](CSc1ccccc1)Nc1ccc(S(=O)(=O)Nc2ncnc3c2CCN(C2CCN(Cc4ccccc4-c4ccc(Cl)cc4)CC2)C3)cc1[N+](=O)[O-] [Example 22, (R)-3-(4-(N-(7-(1-((4′-chlorobiphenyl-2-yl)methyl)piperidin-4-yl)-5,6,7,8-tetrahydropyrido[3,4-d]pyrimidin-4-yl)sulfamoyl)-2-nitrophenylamino)-N,N-dimethyl-4-(phenylthio)butanamide]",75
3,"CCN1CCN(CC[C@H](CSc2ccccc2)Nc2ccc(S(=O)(=O)Nc3ncnc4c3CCN(C3CCN(Cc5ccccc5-c5ccc(Cl)cc5)CC3)C4)cc2S(=O)(=O)C(F)(F)F)CC1 [Example 23, N-{7-[1-(4′-Chloro-biphenyl-2-ylmethyl)-piperidin-4-yl]-5,6,7,8-tetrahydro-pyrido[3,4-d]pyrimidin-4-yl}-4[(R)-3-(4-ethyl-piperazin-1-yl)-1-phenylsulfanylmethyl-propylamino]-3-trifluoromethanesulfonyl-benzenesulfonamide]",51
4,CC(C1=C(c2ccc(Cl)cc2)CC(C)(C)CC1)N1CCC(N2CCc3c(ncnc3NS(=O)(=O)c3ccc(N[C@H](CCN4CCOCC4)CSc4ccccc4)c(S(=O)(=O)C(F)(F)F)c3)C2)CC1 (some centres unmarked) [Example 24],89
